Measurements from publication PMC9299836 (eLife, 2022).
“And” between values parts separate entries of the source, which are not always exact repeats. Equal values may be shown once.

Columns and labels:
mGluR2 [1] = target: mGluR2 (Mus musculus, UniProt Q14BI2, INS715F); test: Live-cell FRET, azi-ECL2 (7TM domain, extracellular loop 2) sensor in HEK293T cells; settings: for Mean normalized azi-ECL2 FRET response: glutamate + 0.5μM modulator, maximal response normalized to 1mM glutamate;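 for all read-outs here: Cy3/Cy5 click-labeled sensor, whole-membrane ROIs per cell, apparent FRET after bleed-through correction, ΔFRET as treatment minus pre-treatment signal, at room temperature, at least three biological replicates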
Sequence of mGluR2 (Mus musculus, UniProt Q14BI2, INS715F) (Q14BI2 with tags, fused parts or gaps INS715F): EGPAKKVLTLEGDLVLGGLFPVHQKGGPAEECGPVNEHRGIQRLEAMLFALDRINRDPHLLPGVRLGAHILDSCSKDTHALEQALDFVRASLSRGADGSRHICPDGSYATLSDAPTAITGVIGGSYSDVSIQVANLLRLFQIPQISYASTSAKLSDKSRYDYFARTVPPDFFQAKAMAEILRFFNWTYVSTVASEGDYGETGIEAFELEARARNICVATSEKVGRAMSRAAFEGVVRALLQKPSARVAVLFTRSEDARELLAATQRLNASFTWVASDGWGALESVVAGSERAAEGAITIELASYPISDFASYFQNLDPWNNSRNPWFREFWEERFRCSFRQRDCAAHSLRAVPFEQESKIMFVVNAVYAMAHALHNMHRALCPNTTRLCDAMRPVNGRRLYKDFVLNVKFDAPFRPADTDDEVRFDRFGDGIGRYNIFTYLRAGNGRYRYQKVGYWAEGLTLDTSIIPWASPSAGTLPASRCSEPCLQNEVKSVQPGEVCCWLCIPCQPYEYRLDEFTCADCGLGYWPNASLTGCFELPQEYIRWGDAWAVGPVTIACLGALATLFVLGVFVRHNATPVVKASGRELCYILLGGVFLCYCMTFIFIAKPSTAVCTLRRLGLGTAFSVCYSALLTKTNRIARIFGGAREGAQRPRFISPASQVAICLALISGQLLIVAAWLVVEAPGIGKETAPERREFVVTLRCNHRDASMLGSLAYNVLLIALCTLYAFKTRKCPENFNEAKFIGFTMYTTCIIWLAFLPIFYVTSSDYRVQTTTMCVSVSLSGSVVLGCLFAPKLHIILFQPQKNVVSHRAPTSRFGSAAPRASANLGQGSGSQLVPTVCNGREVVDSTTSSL

mGluR2 [2] = target: mGluR2 (Mus musculus, UniProt Q14BI2, A548F); test: Live-cell FRET, azi-CRD (cysteine-rich domain) sensor in HEK293T cells; settings: for Mean normalized FRET response, azi-CRD PAM DRC: glutamate + 0.5μM JNJ-42153605, maximal response normalized to 1mM glutamate
Sequence of mGluR2 (Mus musculus, UniProt Q14BI2, A548F) (Q14BI2 19-872 A548F): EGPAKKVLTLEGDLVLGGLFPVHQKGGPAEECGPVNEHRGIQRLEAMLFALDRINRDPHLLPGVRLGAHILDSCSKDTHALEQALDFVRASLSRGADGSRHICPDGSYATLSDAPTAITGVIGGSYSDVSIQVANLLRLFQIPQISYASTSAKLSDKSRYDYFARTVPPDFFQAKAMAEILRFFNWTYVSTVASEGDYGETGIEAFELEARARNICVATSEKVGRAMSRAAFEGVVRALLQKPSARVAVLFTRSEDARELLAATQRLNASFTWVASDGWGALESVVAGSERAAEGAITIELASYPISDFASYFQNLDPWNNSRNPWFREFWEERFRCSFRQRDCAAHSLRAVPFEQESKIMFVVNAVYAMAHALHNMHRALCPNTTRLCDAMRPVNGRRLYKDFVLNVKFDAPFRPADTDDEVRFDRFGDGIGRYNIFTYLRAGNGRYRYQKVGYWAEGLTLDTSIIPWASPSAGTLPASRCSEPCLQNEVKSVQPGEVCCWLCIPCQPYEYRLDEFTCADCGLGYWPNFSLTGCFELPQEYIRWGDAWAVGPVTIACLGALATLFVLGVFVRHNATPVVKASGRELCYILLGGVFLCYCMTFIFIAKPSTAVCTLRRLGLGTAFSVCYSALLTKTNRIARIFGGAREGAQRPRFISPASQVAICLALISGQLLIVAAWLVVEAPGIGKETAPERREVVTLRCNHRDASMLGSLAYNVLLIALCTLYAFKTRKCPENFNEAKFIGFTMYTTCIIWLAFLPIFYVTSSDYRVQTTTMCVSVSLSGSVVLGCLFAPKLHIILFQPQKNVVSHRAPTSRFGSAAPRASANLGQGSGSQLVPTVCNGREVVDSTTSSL

mGluR2 [3] = target: T1, mGluR2 (Mus musculus, UniProt Q14BI2); test: Functional calcium imaging, SNAP-mGluR2 (no FLAG-tag) with chimeric G protein Gqo5 in HEK293T cells; type: cell-based; parameters: Full length mGluR2 construct with an amber codon (TAG) mutation of amino acid A548 (azi-CRD) or N-terminal SNAP-tag (SNAP-mGluR2); host or cells: HEK293T; settings: modulator alone; precluded analysis of glutamate potency and efficacy
T1 sequence (Q14BI2 19-872): as the sequence (Q14BI2 19-872 A548F) above, with F530A counted along it

mGluR2 [4] = target: T1, mGluR2; test: Live-cell FRET, SNAP-m2 (VFT domain) inter-subunit sensor in HEK293T cells; settings: for SNAP-m2 FRET response (PAM DRC) / SNAP-m2 FRET response (PAM DRC), Mean: Glutamate + 0.5μM JNJ-42153605; for SNAP-m2 FRET response (PAM DRC): individual cells, normalized to 1mM glutamate;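 for all read-outs here: apparent FRET efficiency from whole-membrane ROIs of single cells, corrected for donor bleed-through and background, ΔFRET as treatment minus pretreatment signal, recorded at room temperature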
[5] = 0.5μM JNJ-42153605, ([1 mM glutamate + modulator] - [1 mM glutamate]) × 100

azi-ECL2 - ΔEfficacy, Mean ΔEfficacy (mGluR2 [1]; [5]): -1.362
Mean ΔPotency (mGluR2 [1]; 0.5μM modulator, (([modulator + glutamate]EC50 – [glutamate] EC50)/[glutamate] EC50) × 100): -56.3563
Change in glutamate efficacy by FRET signal at ECL2 (mGluR2 [1]; azi-ECL2, 0.5 μM modulator): no change in efficacy
Mean max response (normalized max ΔFRET) (mGluR2 [1]; azi-ECL2, 1 mM glutamate + 0.5 μM modulator, normalized to 1 mM glutamate): 0.99
Hill slope of glutamate titration (mGluR2 [1]; azi-ECL2 sensor, + 0.5 μM modulator): 0.97
Mean normalized azi-ECL2 FRET response (mGluR2 [1]; log[Glutamate] (M) -3): 0.9864
Mean normalized azi-ECL2 FRET response (mGluR2 [1]; log[Glutamate] (M) -4.1549): 0.9409
Mean normalized azi-ECL2 FRET response (mGluR2 [1]; log[Glutamate] (M) -4.52288): 0.8615
Mean normalized azi-ECL2 FRET response (mGluR2 [1]; log[Glutamate] (M) -5): 0.7669
Mean normalized azi-ECL2 FRET response (mGluR2 [1]; log[Glutamate] (M) -5.39794): 0.6334
Mean normalized azi-ECL2 FRET response (mGluR2 [1]; log[Glutamate] (M) -5.82391): 0.3885
Mean normalized azi-ECL2 FRET response (mGluR2 [1]; log[Glutamate] (M) -6.52288): 0.08595
Mean normalized azi-ECL2 FRET response (mGluR2 [1]; log[Glutamate] (M) -7): 0.01271
Mean normalized azi-ECL2 FRET response (mGluR2 [1]; log[Glutamate] (M) -7.30103): 0
Mean normalized azi-ECL2 FRET response (mGluR2 [1]; log[Glutamate] (M) -7.69897): 0
azi-CRD - ΔEfficacy, Mean ΔEfficacy (mGluR2 [2]; [5]): 43.306
Hill slope of glutamate titration (mGluR2 [2]; azi-CRD sensor, + 0.5 μM modulator): 0.84
Mean max response (normalized max ΔFRET) (mGluR2 [2]; azi-CRD, 1 mM glutamate + 0.5 μM modulator, normalized to 1 mM glutamate): 1.43
Mean ΔPotency (mGluR2 [2]; azi-CRD, 0.5μM modulator, (([modulator + glutamate]EC50 – [glutamate] EC50)/[glutamate] EC50) × 100): -59.6016
Mean normalized FRET response, azi-CRD PAM DRC (mGluR2 [2]; log[Glutamate] (M) -3): 1.433
Mean normalized FRET response, azi-CRD PAM DRC (mGluR2 [2]; log[Glutamate] (M) -4.1549): 1.38
Mean normalized FRET response, azi-CRD PAM DRC (mGluR2 [2]; log[Glutamate] (M) -4.52288): 1.273
Mean normalized FRET response, azi-CRD PAM DRC (mGluR2 [2]; log[Glutamate] (M) -5): 1.071
Mean normalized FRET response, azi-CRD PAM DRC (mGluR2 [2]; log[Glutamate] (M) -5.39794): 0.8185
Mean normalized FRET response, azi-CRD PAM DRC (mGluR2 [2]; log[Glutamate] (M) -5.82391): 0.5065
Mean normalized FRET response, azi-CRD PAM DRC (mGluR2 [2]; log[Glutamate] (M) -6.52288): 0.2306
Mean normalized FRET response, azi-CRD PAM DRC (mGluR2 [2]; log[Glutamate] (M) -7): 0.112
Mean normalized FRET response, azi-CRD PAM DRC (mGluR2 [2]; log[Glutamate] (M) -7.30103): 0.06166
Mean normalized FRET response, azi-CRD PAM DRC (mGluR2 [2]; log[Glutamate] (M) -7.69897): 0
Effect of modulator itself on intracellular calcium flux (mGluR2 [3]): Direct activation of mGluR2
SNAP-m2 - ΔEfficacy, Mean ΔEfficacy (mGluR2 [4]; [5]): 1.081
SNAP-m2 FRET response (PAM DRC) (mGluR2 [4]; log[Glutamate] (M) -3): -1.011
SNAP-m2 FRET response (PAM DRC), Mean (mGluR2 [4]; log[Glutamate] (M) -3): -1.011
SNAP-m2 FRET response (PAM DRC), Mean (mGluR2 [4]; log[Glutamate] (M) -4.1549): -1.001
SNAP-m2 FRET response (PAM DRC), Mean (mGluR2 [4]; log[Glutamate] (M) -4.52288): -0.9596
SNAP-m2 FRET response (PAM DRC), Mean (mGluR2 [4]; log[Glutamate] (M) -5): -0.8006
SNAP-m2 FRET response (PAM DRC), Mean (mGluR2 [4]; log[Glutamate] (M) -5.39794): -0.6293
SNAP-m2 FRET response (PAM DRC), Mean (mGluR2 [4]; log[Glutamate] (M) -5.82391): -0.4469
SNAP-m2 FRET response (PAM DRC) (mGluR2 [4]; log[Glutamate] (M) -6): -0.07432 and -0.0721
SNAP-m2 FRET response (PAM DRC), Mean (mGluR2 [4]; log[Glutamate] (M) -6): -0.07321
SNAP-m2 FRET response (PAM DRC), Mean (mGluR2 [4]; log[Glutamate] (M) -6.52288): -0.1478
SNAP-m2 FRET response (PAM DRC) (mGluR2 [4]; log[Glutamate] (M) -7): -0.1024 and -0.08845 and 0 (3×)
SNAP-m2 FRET response (PAM DRC), Mean (mGluR2 [4]; log[Glutamate] (M) -7): -0.03816
SNAP-m2 FRET response (PAM DRC) (mGluR2 [4]; log[Glutamate] (M) -7.30103): -0.03839 and 0 (4×)
SNAP-m2 FRET response (PAM DRC), Mean (mGluR2 [4]; log[Glutamate] (M) -7.30103): -0.00768
SNAP-m2 FRET response (PAM DRC) (mGluR2 [4]; log[Glutamate] (M) -7.69897): 0
SNAP-m2 FRET response (PAM DRC), Mean (mGluR2 [4]; log[Glutamate] (M) -7.69897): 0
Mean max response (normalized max ΔFRET) (mGluR2 [4]; SNAP-m2, 1 mM glutamate + 0.5 μM modulator, normalized to 1 mM glutamate): 1.01
Mean ΔPotency (mGluR2 [4]; SNAP-m2, 0.5μM modulator, (([modulator + glutamate]EC50 – [glutamate] EC50)/[glutamate] EC50) × 100): -64.9475
Mean ΔEfficacy (mGluR2 [4]; SNAP-m2, 0.5μM modulator, ([1 mM glutamate + modulator] - [1 mM glutamate]) × 100): 1.081
Hill slope of glutamate titration (mGluR2 [4]; SNAP-m2 sensor, + 0.5 μM modulator): –0.95
SMILES: FC(F)(F)c1c(N2CCC(c3ccccc3)CC2)ccn2c(CC3CC3)nnc12 [JNJ-42153605, 3-cyclopropylmethyl-7-(4-phenylpiperidin-1-yl)-8-trifluoromethyl[1,2,4]triazolo[4,3-a]pyridine]
ΔPotency, individual cell responses (mGluR2 [1]; 0.5μM modulator, single cells, (([modulator + glutamate]EC50 – [glutamate] EC50)/[glutamate] EC50) × 100): -56.3361 and -69.1679 and -73.0287 and -52.3819 and -40.5992 and -58.985 and -50.7357 and -45.7659 and -53.2747 and -65.0568 and -56.2788 and -59.6269 and -60.7335 and -44.1256 and -58.5158 and -54.4905 and -58.9548
ΔEfficacy, individual cell responses (mGluR2 [1]; 0.5μM modulator, single cells, ([1 mM glutamate + modulator] - [1 mM glutamate]) × 100): -2.941 and 0.7843 and -9.091 and 0.4875 and -2.828 and 1.987 and -3.4754 and -3.284 and -3.415 and -12.5737 and -5.278 and 16.4947 and 5.4247
azi-CRD - ΔEfficacy, individual cell responses (mGluR2 [2]; 0.5μM JNJ-42153605, single cells): 82.2727 and 42.4779 and 50.5102 and 41.4773 and 23.5294 and 12.5265 and 26.2467 and 67.4074
Live-cell FRET max response normalized to 1mM glutamate (mGluR2 [2]; azi-CRD sensor, Glutamate + 0.5μM JNJ-42153605, individual values (N=8)): 1.235 and 1.125 and 1.262 and 1.674 and 1.823 and 1.425 and 1.5051 and 1.415
ΔPotency, individual cell (mGluR2 [2]; azi-CRD, 0.5μM modulator, calculated from individual cell responses): -88.5847 and -77.2559 and -86.9416 and -84.6067 and -90.4873 and -15.0698 and -44.7131 and -29.6276 and 9.8556
SNAP-m2 FRET response (PAM DRC) (mGluR2 [4]; log[Glutamate] (M) -4.1549): -1.026 and -1.036 and -0.9975 and -0.9514 and -0.995
SNAP-m2 FRET response (PAM DRC) (mGluR2 [4]; log[Glutamate] (M) -4.52288): -1.0364 and -1.036 and -1.011 and -0.8324 and -0.8825
SNAP-m2 FRET response (PAM DRC) (mGluR2 [4]; log[Glutamate] (M) -5): -1.011 (2×) and -0.9177 and -0.5203 and -0.5436
SNAP-m2 FRET response (PAM DRC) (mGluR2 [4]; log[Glutamate] (M) -5.39794): -0.9084 and -0.9097 and -0.7581 and -0.2676 and -0.3028
SNAP-m2 FRET response (PAM DRC) (mGluR2 [4]; log[Glutamate] (M) -5.82391): -0.7293 and -0.6949 and -0.532 and -0.1338 and -0.1442
SNAP-m2 FRET response (PAM DRC) (mGluR2 [4]; log[Glutamate] (M) -6.52288): -0.2853 and -0.2653 and -0.1596 and 0 and -0.02884
